Experimental findings from patent publication US20260355274A1 (Onkure, Inc., priority 2022, published 2026) are described below.

Common to all, as to assay type: biochemical
In one assay the test system is Class I HDAC. Briefly: enzymatic inhibition of Class I HDACs (summary). Conditions: in words. An excerpt:
(§1) The mammalian HDACs can be divided into four classes depending on their sequence homology, sub-cellular distribution and catalytic activity. Class I, Il and IV HDACs have a Zn^2+ cofactor in the catalytic site. Class III HDACs contain sirtuins 1-7 and are NAD^+-dependent. Class I (HDACs 1, 2, 3 and 8) share the same homology as Rpd3 and are preliminarily distributed in the nucleus of normal cells. Class II HDACs can be subdivided into class IIa HDACs and class Ilb HDACs. Class IIa enzymes (HDAC 4, 5, 7 and 9) shuttle between the nucleus and cytoplasm and are located in specific tissues such as the brain, heart, and muscle. Class IIb (HDACs 6 and 10) are chiefly located in the cytoplasm.

In another assay the target is HDAC 10 (Homo sapiens, UniProt Q969S8). Nature of the assay: enzymatic inhibition of HDAC 10. Conditions: HDAC 10, Class IIb.
From the text: as §1

For another assay, the target named is HDAC 6 (Homo sapiens, UniProt Q9UBN7). Nature of the assay: enzymatic inhibition of HDAC 6. Conditions: HDAC 6, Class IIb; read-out: IC50.
From the text: as §1

In the next assay the target is HDAC 7 (Homo sapiens, UniProt Q8WUI4). Nature of the assay: enzymatic inhibition of HDAC 7. Conditions: HDAC 7, Class IIa; read-out: IC50.
From the text: as §1

Another assay addresses HDAC 11 (Homo sapiens, UniProt Q96DB2). Nature of the assay: enzymatic inhibition of HDAC 11. Conditions: HDAC 11, Class IV.
From the text: as §1

In a further assay the target is HDAC 2 (Homo sapiens, UniProt Q92769). Briefly: enzymatic inhibition of HDAC 2. Conditions: HDAC 2, Class I.
From the text: as §1

Another assay concerns the target HDAC 9 (Homo sapiens, UniProt Q9UKV0). Nature of the assay: enzymatic inhibition of HDAC 9. Conditions: HDAC 9, Class IIa; read-out: IC50.
From the text: as §1

For the next assay, the target named is HDAC 3 (Homo sapiens, UniProt O15379). Briefly: enzymatic inhibition of HDAC 3. Conditions: HDAC 3, Class I.
From the text: as §1

The next assay has as its target HDAC 4 (Homo sapiens, UniProt P56524). Briefly: enzymatic inhibition of HDAC 4. Conditions: HDAC 4, Class IIa; read-out: IC50.
From the text: as §1

A further assay addresses HDAC 5 (Homo sapiens, UniProt Q9UQL6). Briefly: enzymatic inhibition of HDAC 5. Conditions: HDAC 5, Class IIa; read-out: IC50.
From the text: as §1

A further assay deals with HDAC 8 (Homo sapiens, UniProt Q9BY41). Nature of the assay: enzymatic inhibition of HDAC 8. Conditions: HDAC 8, Class I; read-out: IC50.
From the text: as §1

The target of another assay is HDAC 1 (Homo sapiens, UniProt Q13547). Briefly: enzymatic inhibition of HDAC 1. Conditions: HDAC 1, Class I.
From the text: as §1

Chain of HDAC 10 (Q969S8 whole entry): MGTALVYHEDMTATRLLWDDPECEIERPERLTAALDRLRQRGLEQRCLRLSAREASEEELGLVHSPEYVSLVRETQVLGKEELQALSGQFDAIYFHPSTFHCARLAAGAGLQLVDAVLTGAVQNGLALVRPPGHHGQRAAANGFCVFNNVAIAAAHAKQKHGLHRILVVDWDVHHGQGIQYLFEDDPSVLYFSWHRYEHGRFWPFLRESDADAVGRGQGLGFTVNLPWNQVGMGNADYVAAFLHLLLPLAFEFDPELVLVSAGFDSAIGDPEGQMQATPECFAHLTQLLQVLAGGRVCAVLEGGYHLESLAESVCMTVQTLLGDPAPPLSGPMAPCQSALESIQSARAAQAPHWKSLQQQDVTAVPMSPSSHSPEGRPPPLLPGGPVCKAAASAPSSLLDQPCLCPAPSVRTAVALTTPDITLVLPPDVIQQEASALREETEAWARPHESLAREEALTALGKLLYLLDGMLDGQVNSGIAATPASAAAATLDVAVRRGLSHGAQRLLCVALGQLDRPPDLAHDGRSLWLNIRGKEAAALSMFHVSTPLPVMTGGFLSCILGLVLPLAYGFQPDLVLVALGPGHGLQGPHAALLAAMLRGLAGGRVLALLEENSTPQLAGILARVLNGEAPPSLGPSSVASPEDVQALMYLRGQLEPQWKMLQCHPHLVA
Chain of HDAC 3 (O15379 whole entry): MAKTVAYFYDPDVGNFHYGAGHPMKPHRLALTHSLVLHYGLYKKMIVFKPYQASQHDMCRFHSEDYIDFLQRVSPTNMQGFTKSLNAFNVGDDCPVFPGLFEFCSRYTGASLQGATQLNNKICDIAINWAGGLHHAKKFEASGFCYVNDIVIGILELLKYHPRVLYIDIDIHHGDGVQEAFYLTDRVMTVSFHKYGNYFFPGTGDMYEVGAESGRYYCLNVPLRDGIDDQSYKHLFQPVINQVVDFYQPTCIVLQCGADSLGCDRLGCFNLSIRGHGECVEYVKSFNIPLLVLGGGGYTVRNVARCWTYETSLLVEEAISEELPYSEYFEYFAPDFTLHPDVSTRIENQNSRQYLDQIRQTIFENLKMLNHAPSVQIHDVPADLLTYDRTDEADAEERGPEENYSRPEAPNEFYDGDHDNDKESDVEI
Chain of HDAC 3 (Q9Y618 395-489 partner limits assumed): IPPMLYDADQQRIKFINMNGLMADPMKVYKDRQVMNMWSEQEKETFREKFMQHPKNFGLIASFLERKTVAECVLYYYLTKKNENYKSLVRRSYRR
Chain of HDAC 5 (Q9UQL6 whole entry): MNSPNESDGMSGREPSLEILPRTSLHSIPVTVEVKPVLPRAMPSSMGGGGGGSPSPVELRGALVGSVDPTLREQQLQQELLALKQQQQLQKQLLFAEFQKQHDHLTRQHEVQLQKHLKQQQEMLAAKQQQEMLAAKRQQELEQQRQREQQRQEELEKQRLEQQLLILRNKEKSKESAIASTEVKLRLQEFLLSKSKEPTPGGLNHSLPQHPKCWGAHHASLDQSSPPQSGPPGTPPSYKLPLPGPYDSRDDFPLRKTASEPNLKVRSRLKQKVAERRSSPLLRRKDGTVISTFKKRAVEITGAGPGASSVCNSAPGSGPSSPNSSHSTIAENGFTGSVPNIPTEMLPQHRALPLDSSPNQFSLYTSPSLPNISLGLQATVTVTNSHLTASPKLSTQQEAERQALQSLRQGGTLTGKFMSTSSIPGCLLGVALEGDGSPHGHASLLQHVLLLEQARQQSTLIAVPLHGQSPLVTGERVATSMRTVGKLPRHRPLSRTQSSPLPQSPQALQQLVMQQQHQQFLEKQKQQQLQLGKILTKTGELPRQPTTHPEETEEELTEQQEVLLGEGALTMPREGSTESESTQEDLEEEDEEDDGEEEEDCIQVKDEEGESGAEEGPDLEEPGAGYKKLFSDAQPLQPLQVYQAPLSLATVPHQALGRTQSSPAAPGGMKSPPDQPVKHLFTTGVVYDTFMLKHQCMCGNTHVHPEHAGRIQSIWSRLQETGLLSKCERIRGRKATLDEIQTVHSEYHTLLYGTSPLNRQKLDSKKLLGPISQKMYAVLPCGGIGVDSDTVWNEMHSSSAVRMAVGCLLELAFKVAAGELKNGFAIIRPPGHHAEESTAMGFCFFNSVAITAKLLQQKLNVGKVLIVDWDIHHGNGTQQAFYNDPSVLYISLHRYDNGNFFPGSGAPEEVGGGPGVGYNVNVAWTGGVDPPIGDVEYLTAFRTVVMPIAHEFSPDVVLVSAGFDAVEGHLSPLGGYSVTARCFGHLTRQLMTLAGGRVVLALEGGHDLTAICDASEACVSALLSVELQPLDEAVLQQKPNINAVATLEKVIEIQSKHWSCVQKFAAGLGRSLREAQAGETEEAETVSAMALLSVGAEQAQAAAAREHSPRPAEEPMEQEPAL
Chain of HDAC 4 (P56524 whole entry): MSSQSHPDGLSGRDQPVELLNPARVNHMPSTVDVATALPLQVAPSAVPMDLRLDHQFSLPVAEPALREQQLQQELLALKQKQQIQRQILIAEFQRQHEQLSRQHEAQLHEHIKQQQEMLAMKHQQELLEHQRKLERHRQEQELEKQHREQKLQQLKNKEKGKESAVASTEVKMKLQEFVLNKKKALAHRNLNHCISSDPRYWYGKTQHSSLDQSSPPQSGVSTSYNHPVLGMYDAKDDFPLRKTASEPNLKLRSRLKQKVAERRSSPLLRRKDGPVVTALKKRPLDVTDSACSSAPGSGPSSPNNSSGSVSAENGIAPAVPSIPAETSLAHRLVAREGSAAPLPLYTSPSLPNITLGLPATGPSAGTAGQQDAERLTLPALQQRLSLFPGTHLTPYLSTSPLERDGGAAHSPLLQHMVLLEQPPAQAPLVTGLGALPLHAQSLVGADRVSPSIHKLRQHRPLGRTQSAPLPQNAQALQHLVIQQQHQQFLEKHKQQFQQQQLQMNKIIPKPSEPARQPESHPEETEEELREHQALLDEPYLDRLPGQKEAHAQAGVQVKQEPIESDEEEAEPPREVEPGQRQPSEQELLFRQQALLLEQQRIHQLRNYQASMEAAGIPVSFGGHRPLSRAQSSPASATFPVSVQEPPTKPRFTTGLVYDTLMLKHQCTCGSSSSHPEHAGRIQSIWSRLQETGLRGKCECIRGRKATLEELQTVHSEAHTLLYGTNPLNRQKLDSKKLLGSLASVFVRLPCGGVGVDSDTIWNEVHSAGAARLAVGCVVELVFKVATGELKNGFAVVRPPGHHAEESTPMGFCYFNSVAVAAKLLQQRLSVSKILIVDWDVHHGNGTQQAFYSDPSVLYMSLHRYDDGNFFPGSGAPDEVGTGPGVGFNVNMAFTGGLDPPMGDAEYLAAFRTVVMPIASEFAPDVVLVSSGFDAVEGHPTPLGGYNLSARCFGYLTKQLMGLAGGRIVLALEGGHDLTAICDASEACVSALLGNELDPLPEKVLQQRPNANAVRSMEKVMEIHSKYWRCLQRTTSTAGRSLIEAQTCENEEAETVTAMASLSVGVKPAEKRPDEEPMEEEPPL
Chain of HDAC 7 (Q8WUI4 whole entry): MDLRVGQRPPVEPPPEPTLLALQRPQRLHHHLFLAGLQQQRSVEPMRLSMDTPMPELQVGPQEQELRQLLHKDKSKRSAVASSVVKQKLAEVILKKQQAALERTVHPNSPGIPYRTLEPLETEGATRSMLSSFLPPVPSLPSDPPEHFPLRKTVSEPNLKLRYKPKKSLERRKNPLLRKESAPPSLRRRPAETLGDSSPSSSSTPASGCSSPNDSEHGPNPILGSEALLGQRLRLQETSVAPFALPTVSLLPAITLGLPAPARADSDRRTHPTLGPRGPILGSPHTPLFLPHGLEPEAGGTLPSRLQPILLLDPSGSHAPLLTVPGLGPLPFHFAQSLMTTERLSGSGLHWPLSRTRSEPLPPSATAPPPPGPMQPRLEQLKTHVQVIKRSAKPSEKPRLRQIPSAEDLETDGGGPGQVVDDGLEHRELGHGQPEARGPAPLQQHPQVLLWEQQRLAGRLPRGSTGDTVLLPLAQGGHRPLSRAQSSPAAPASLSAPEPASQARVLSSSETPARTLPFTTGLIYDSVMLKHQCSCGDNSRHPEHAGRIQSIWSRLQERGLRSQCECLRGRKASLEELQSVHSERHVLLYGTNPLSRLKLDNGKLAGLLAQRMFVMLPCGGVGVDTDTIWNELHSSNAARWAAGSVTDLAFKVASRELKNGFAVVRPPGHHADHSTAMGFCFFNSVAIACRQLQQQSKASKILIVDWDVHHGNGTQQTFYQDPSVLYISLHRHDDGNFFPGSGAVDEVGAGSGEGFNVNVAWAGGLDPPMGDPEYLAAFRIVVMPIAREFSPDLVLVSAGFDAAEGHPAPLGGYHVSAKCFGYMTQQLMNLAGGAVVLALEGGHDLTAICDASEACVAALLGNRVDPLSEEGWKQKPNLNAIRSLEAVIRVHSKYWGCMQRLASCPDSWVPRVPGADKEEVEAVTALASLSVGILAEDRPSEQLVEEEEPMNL
Chain of HDAC 2 (Q92769 whole entry): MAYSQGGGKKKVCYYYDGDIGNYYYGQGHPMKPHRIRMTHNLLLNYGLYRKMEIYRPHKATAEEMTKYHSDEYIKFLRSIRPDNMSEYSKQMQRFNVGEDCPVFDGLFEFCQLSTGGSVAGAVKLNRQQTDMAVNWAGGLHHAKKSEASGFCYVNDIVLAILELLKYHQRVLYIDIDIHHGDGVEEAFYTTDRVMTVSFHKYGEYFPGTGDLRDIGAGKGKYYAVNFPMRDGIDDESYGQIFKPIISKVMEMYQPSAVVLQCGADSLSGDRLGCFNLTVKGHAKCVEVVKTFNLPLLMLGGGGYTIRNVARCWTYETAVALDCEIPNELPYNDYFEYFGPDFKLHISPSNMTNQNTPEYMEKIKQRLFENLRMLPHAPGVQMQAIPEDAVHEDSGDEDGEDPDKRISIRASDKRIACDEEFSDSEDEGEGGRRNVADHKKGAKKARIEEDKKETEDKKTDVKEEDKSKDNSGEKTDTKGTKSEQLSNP

For `CC(C)[C@@H]1NC(=O)C(C)(C)NC(=O)c2csc(n2)CNC(=O)C[C@@H](/C=C/CCS)OC1=O` [OKI-006], the “potency / selectivity for Class I HDAC” value in the assay on Class I HDAC is given as “high potency for Class I HDAC inhibitors”. Moreover, the concentration for half-maximal inhibition (IC50) at HDAC 10 is 2.8 nM; at HDAC 6, 47 nM; on HDAC 7, > 1000 nM; against HDAC 11 it was 2.3 nM; against HDAC 2 it was 2.4 nM; at HDAC 9 it was > 1000 nM. Moreover, the IC50 against HDAC 3 is 2 nM; on HDAC 4, > 1000 nM; at HDAC 5 it was > 1000 nM; on HDAC 8, 49 nM; on HDAC 1, 1.2 nM.
